In patent US10837001B2, “Cardiomyocyte maturation platform” (The Regents of the University of California, priority 2016, dated 2020):

Columns and labels:
[1] = test system: iPSC-derived cardiomyocytes; assay: Pharmacological treatment of iPSC-derived cardiomyocytes (beat rate, calcium transient); format: cell-based, human
Method: The iPSC-derived cardiomyocytes have been engineered to express a calcium indicator (GCaMP6f reporter) that emits fluorescence in the presence of cytosolic calcium. Calcium transients were measured using an epifluorescent microscope with an inverted 10× objective (IX70 Olympus, Tokyo, Japan). Images were captured using a SPOT Idea 3.0 megapixel color fluorescent camera and SPOT acquisition software (SPOT Imaging Solutions, Sterling Heights, Mich.). The cells were placed in a 37° C. heated stage during imaging. The video was captured at 33 frames/second with 8×8 binning. ImageJ was used to process and extract the temporal fluorescence intensity of the acquired video data. Subsequent data were analyzed using MATLAB software (MathWorks, Torrance, Calif.). A customized algorithm determined the troughs and peaks of each calcium wave and measured the amplitude, max upslope, max downslope, time to 50% decay, and beat rate. Additional measurements included the effect of caffeine on the slope of amplitude change. Baseline and drug recordings were taken before and after 10 min incubation with the drug(s) on the 37° C. stage. All recordings were taken over 1 min. The order of the β-adrenergic drug treatments was baseline, 1 μM isoproterenol (Sigma #16504), and 1 μM Isoproterenol+10 μM Propranolol (Sigma # P0884). The effect of caffeine (Tocris #2793) on calcium signaling was assessed at a final concentration of 20 mM. The video recordings were acquired before and during the addition of caffeine.

[2] = test system: iPSC-derived CM; assay: qPCR of maturation markers with EC-conditioned medium / EC co-culture and ET or notch inhibition; format: cell-based, human; settings: 20 μM, EC and CM co-cultured, 7 days
Method: EC and iPSC-derived CMs were plated onto Matrigel Growth Factor Reduced (BD) coated dishes. Cells were fed with RPMI media supplemented with B27 (Life Technologies) and Endothelial Cell Growth Supplement (ECGS; BD Biosciences) every 2-3 days. EC-conditioned medium was collected after 1-3 days of EC growth. Endothelin inhibition was achieved by adding 10 nM PD145065 inhibitor (EMD Millipore) and notch inhibition with 20 μM DAPT (Sigma) at every media change. Cells were fed on days 1 and 4 and then harvested after 7 days.
RNA was extracted using TRIzol (Life Technologies) according to manufacturer's instructions. Three micrograms of RNA was used to generate cDNA using the iSCRIPT cDNA Synthesis Kit (Bio-Rad). The reaction mix included SYBR green chemistry and primers generated by IDT Technologies. The samples were analyzed using an iQ5 Real Time PCR Detection System (Bio-Rad). The control sample, compared to EC/iPSC-derived CM co-culture, consisted of a mix of equal parts EC and iPSC-derived CM RNA that were isolated separately. (n=3; *p<0.05 **p<0.01 ***p<0.001, Student's t-test)

[3] = test system: iPSC-derived CM; settings: endothelial cells/cardiomyocyte co-culture; cited from earlier work

With `CC(C)NCC(O)COc1cccc2ccccc12` (centres unmarked) [propranolol] the Beat rate ([1]; 10 μM added after 1 μM isoproterenol) was “decreased to baseline levels”.
For `C[C@H](NC(=O)Cc1cc(F)cc(F)c1)C(=O)N[C@H](C(=O)OC(C)(C)C)c1ccccc1` [DAPT], the “Maturation markers Junctin, SERCA2a, CaV1.2” value [2] is listed as “decrease” and the cTNT expression [3] is listed as “decrease”.
With `Cn1c(=O)c2c(ncn2C)n(C)c1=O` [caffeine] the Calcium release ([1]; 20 mM, 3D culture vs 2D) was “more rapid release of calcium”, the “Time to maximum calcium concentration” value ([1]; 20 mM, 3D culture vs 2D) was “quicker” and the “Upslope (velocity of calcium release)” value ([1]; 20 mM, 3D culture vs 2D) was “steeper”.
With `CC(C)NCC(O)c1ccc(O)c(O)c1` (centres unmarked) [isoproterenol] the Beat rate ([1]; 1 μM, 10 min incubation) was “increased their beat rate” and the Beat rate ([1]; cells cultured in 3D compared to cells in 2D culture) was “increased beat rate”.
